Ten compounds from patent US8754242B2, “Herbicides” (Syngenta Crop Protection LLC, priority 2007, dated 2014) can be followed below.

SMILES strings stand for the structures.

Holding throughout (type): in vivo
Assay [1] has as its system Avena fatua (AVEFA). The assay is described as follows: Test Example 1 pre-emergence herbicidal activity. Conditions: Avena fatua, 480 h, rate 250 g/ha, evaluated 20 days later, read-out: Pre-emergence activity AVEFA (100=total damage to plant; 0=no damage to plant). In outline: (§1)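 Once sown in standard soil, pots received an aqueous spray of the formulated active ingredient, either after one day or after ten days of controlled glasshouse growth. Plants then grew under optimum greenhouse conditions. Herbicidal effect was assessed visually 15 (post-emergence) or 20 (pre-emergence) days later, 100 meaning total plant damage.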

The test system of assay [2] is Setaria faberi (SETFA). The assay is described as follows: Test Example 1 pre-emergence herbicidal activity. The following applies: Setaria faberi, 480 h, rate 250 g/ha, evaluated 20 days later, read-out: Pre-emergence activity SETFA (100=total damage to plant; 0=no damage to plant). In outline:
as §1

Assay [3] deals with Digitaria sanguinalis (DIGSA). The assay can be described thus: Test Example 1 pre-emergence herbicidal activity. The following applies: Digitaria sanguinalis, 480 h, rate 250 g/ha, evaluated 20 days later, read-out: Pre-emergence activity DIGSA (100=total damage to plant; 0=no damage to plant). The procedure, abridged: as §1
The test system of assay [4] is Echinochloa crus-galli (ECHCG). The assay can be described thus: Test Example 1 pre-emergence herbicidal activity. Conditions: Echinochloa crus-galli, 480 h, rate 250 g/ha, evaluated 20 days later, read-out: Pre-emergence activity ECHCG (100=total damage to plant; 0=no damage to plant). The procedure, abridged:
as §1

The test system of assay [5] is Alopecurus myosuroides (ALOMY). The assay is described as follows: Test Example 1 pre-emergence herbicidal activity. Conditions: Alopecurus myosuroides, 480 h, rate 250 g/ha, evaluated 20 days later, read-out: Pre-emergence activity ALOMY (100=total damage to plant; 0=no damage to plant). The procedure, abridged:
as §1

For assay [6], the system named is Lolium perenne (LOLPE). The assay is described as follows: Test Example 1 pre-emergence herbicidal activity. Conditions: Lolium perenne, 480 h, rate 250 g/ha, evaluated 20 days later, read-out: Pre-emergence activity LOLPE (100=total damage to plant; 0=no damage to plant). The procedure, abridged:
as §1

The subject of assay [7] is Avena fatua (AVEFA). The assay can be described thus: Test Example 1 post-emergence herbicidal activity. The following applies: 360 h, rate 125 g/ha, evaluated 15 days later, read-out: Post-emergence activity AVEFA (100=total damage to plant; 0=no damage to plant). The procedure, abridged: as §1
In assay [8] the test system is Setaria faberi (SETFA). The assay is described as follows: Test Example 1 post-emergence herbicidal activity. Conditions: 360 h, rate 125 g/ha, evaluated 15 days later, read-out: Post-emergence activity SETFA (100=total damage to plant; 0=no damage to plant). The procedure, abridged:
as §1

In assay [9] the test system is Digitaria sanguinalis (DIGSA). The assay can be described thus: Test Example 1 post-emergence herbicidal activity. The following applies: 360 h, rate 125 g/ha, evaluated 15 days later, read-out: Post-emergence activity DIGSA (100=total damage to plant; 0=no damage to plant). In outline:
as §1

Assay [10] concerns Echinochloa crus-galli (ECHCG). The assay can be described thus: Test Example 1 post-emergence herbicidal activity. The following applies: 360 h, rate 125 g/ha, evaluated 15 days later, read-out: Post-emergence activity ECHCG (100=total damage to plant; 0=no damage to plant). In outline:
as §1

In assay [11] the test system is Alopecurus myosuroides (ALOMY). The assay is described as follows: Test Example 1 post-emergence herbicidal activity. The following applies: 360 h, rate 125 g/ha, evaluated 15 days later, read-out: Post-emergence activity ALOMY (100=total damage to plant; 0=no damage to plant). The procedure, abridged:
as §1

Assay [12] concerns Lolium perenne (LOLPE). The assay can be described thus: Test Example 1 post-emergence herbicidal activity. Conditions: 360 h, rate 125 g/ha, evaluated 15 days later, read-out: Post-emergence activity LOLPE (100=total damage to plant; 0=no damage to plant). The procedure, abridged:
as §1

As to `Cc1cc(C)c(C2=C(O)[C@@H]3[C@@H]4O[C@@H](C[C@H]4c4cccc(C(F)(F)F)c4)[C@@H]3C2=O)c(C)c1` [Example T85], the pest or weed control at 250 g/ha in assay [1] is 60%; in assay [2], 70%; in assay [3] it was 60%; in [4] it was 70%; in assay [5] it was 40%; in assay [6] it was 70%. The pest or weed control at 125 g/ha is 20% in assay [7]; 70% in assay [8]; 20% in assay [9]; 100% in assay [10]; 90% in assay [11]; 70% in [12].
Regarding `Cc1cc(C)c(C2=C(O)[C@@H]3[C@@H]4O[C@@H](C[C@H]4c4cccc(C#N)c4)[C@@H]3C2=O)c(C)c1` [Example T89], the pest or weed control at 250 g/ha stood at 60% in [1]; 30% in assay [2]; 30% in assay [3]; 20% in [4]; 20% in assay [5]; 40% in assay [6]. Besides, the pest or weed control at 125 g/ha in assay [7] amounted to 80%; in assay [8], 90%; in assay [9], 90%; in assay [10] it was 100%; in assay [11], 80%; in [12], 80%.
Turning to `Cc1cc(C)c(C2=C(O)[C@@H]3[C@@H]4O[C@@H](C[C@H]4c4ccc([N+](=O)[O-])cc4)[C@@H]3C2=O)c(C)c1` [Example T90], the pest or weed control at 250 g/ha in assay [1] is 60%; in assay [2], 40%; in [3], 60%; in [4], 70%; in assay [5], 10%; in assay [6], 20%. For the same compound, the pest or weed control at 125 g/ha in [7] amounted to 80%; in assay [8] it was 60%; in assay [9] it was 80%; in assay [10], 80%; in assay [11] it was 90%; in assay [12] it was 60%.
Take `Cc1cc(C)c(C2=C(O)[C@@H]3[C@@H]4O[C@@H](C[C@H]4c4ccc(OC(F)(F)F)cc4)[C@@H]3C2=O)c(C)c1` [Example T91]: the pest or weed control at 250 g/ha in assay [1] is 50%; in [2], 50%; in assay [3], 70%; in assay [4], 50%; in [5], 20%; in assay [6] it was 20%. The pest or weed control at 125 g/ha was found to be 90% in [7]; 100% in assay [8]; 100% in assay [9]; 100% in assay [10]; 90% in assay [11]; 50% in assay [12].
Turning to `Cc1cc(C)c(C2=C(O)[C@@H]3[C@@H]4O[C@@H](C[C@H]4c4ccc(C(F)(F)F)cc4)[C@@H]3C2=O)c(C)c1` [Example T92], the pest or weed control at 250 g/ha in assay [1] came to 60%; in assay [2] it was 70%; in assay [3], 70%; in [4], 90%; in assay [5] it was 20%; in [6] it was 30%. Besides, the pest or weed control at 125 g/ha worked out at 100% in [7]; 100% in assay [8]; 100% in assay [9]; 100% in assay [10]; 100% in assay [11]; 50% in assay [12].
`Cc1cc(C)c(C2=C(O)[C@@H]3[C@@H]4O[C@@H](C[C@H]4c4ccc(C#N)cc4)[C@@H]3C2=O)c(C)c1` [Example T93]: the pest or weed control at 250 g/ha in [1] worked out at 30%; in assay [2], 30%; in assay [3] it was 30%; in [4], 0%; in [5], 40%; in assay [6] it was 20%. For the same compound, the pest or weed control at 125 g/ha was 80% in assay [7]; 100% in [8]; 100% in assay [9]; 100% in [10]; 60% in assay [11]; 60% in assay [12].
As for `Cc1cc(C)c(C2=C(O)[C@@H]3[C@@H]4O[C@@H](C[C@@H]4C)[C@@H]3C2=O)c(C)c1` [Example T97], the pest or weed control at 250 g/ha in assay [1] stood at 90%; in [2] it was 90%; in [3] it was 100%; in assay [4] it was 100%; in [5], 100%; in assay [6], 100%. The pest or weed control at 125 g/ha in [7] worked out at 90%; in [8], 100%; in assay [9] it was 100%; in [10] it was 100%; in assay [11] it was 90%; in [12] it was 80%.
In the case of `Cc1cc(C)c(C2=C(O)[C@@H]3[C@@H]4O[C@@H](C[C@H]4/C=C/c4ccccc4)[C@@H]3C2=O)c(C)c1` [Example T98], the pest or weed control at 250 g/ha in assay [1] was 20%; in [2], 70%; in assay [3] it was 0%; in assay [4] it was 30%; in assay [5], 30%; in assay [6], 20%. Moreover, the pest or weed control at 125 g/ha in assay [7] worked out at 20%; in [8], 70%; in assay [9], 60%; in assay [10], 80%; in assay [11], 70%; in assay [12], 40%.
Turning to `CC[C@@H]1C[C@@H]2O[C@H]1[C@H]1C(O)=C(c3c(C)cc(C)cc3C)C(=O)[C@H]12` [Example T106], the pest or weed control at 250 g/ha amounted to 90% in assay [1]; 100% in assay [2]; 100% in assay [3]; 100% in [4]; 90% in assay [5]; 100% in assay [6]. Moreover, the pest or weed control at 125 g/ha in [7] was found to be 80%; in [8], 90%; in [9], 80%; in assay [10], 100%; in assay [11], 90%; in assay [12] it was 80%.
With `CC[C@H]1C[C@@H]2O[C@H]1[C@H]1C(O)=C(c3c(C)cc(C)cc3C)C(=O)[C@H]12` [Example T107], the pest or weed control at 250 g/ha in assay [1] turned out to be 90%; in [2] it was 100%; in assay [3] it was 100%; in [4], 100%; in [5] it was 90%; in assay [6], 100%. In addition, the pest or weed control at 125 g/ha in [7] amounted to 90%; in [8], 100%; in assay [9], 100%; in assay [10], 100%; in assay [11] it was 100%; in assay [12], 90%.
